pIC50: −log10 of the molar value.
Target: tyrosinase from fungi
Assay: Tyrosinase assay (L-DOPA as substrate)
Assay type: biochemical
Conditions: tyrosinase from fungi (16U), phosphate buffer pH 6.8, 25° C., optical density at 470 nm; for pIC50: read-out: IC50 (concentration of the test compound at which 50% of the tyrosinase activity is inhibited)
Method: The action of the compounds I or Ia as skin lighteners is tested through their ability to inhibit the enzyme tyrosinase and thus to suppress melanin synthesis.
The inhibiting action of the compounds of the formula I or Ia against tyrosinase is assessed using tyrosinase from fungi and L-DOPA as substrate.
The compounds, as described in Examples 1 to 3 and the comparative compounds of Examples 10 and 11, and L-dopa are pre-incubated for 10 minutes at 25° C. in phosphate buffer (pH 6.8), and tyrosinase from fungi (16U) (Fluka) is subsequently added. The optical density of the samples is measured at 470 nm against a negative control (without active compound). Kojic acid is likewise tested as tyrosinase reference, i.e. positive control.
The results are shown in the following table, expressed in the IC50 value (the concentration of the test compound at which 50% of the tyrosinase activity is inhibited).

Structure (SMILES) | pIC50 | IC50 (concentration of the test compound at which 50% of the tyrosinase activity is inhibited)
CCc1cc2c(cc1O)OC(=O)CC2 [6-Ethyl-7-hydroxychroman-2-one, 6-ethyl-7-hydroxychroman-2-one] | 3.47 | –
CCCCCCc1cc2c(cc1O)OC(=O)CC2 [6-Hexyl-7-hydroxychroman-2-one, 6-hexyl-7-hydroxychroman-2-one] | 4.60 | –
O=C1CCc2ccc(O)cc2O1 [7-Hydroxychroman-2-one, 7-hydroxychroman-2-one] | 3.00 | –
Cc1cc(O)c(C)c2c1OC(=O)CC2(C)C [Example 10, 6-hydroxy-4,4,5,8-tetramethylchroman-2-one] | – | No inhibition
Cc1c(C)c2c(c(C)c1O)C(C)(C)CC(=O)O2 [Example 11, 6-hydroxy-4,4,5,7,8-pentamethylchroman-2-one] | – | No inhibition
O=c1cc(CO)occ1O [Kojic acid] | 4.92 | –
